Measured values as given in PubChem BioAssay (NCI).
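In this assay, cells in 96-well plates receive the compound at five concentrations for 48 hours. Endpoints are linearly interpolated between the surrounding concentrations. GI50 marks 50% less growth. At the TGI there is no net growth.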

Assays:
Assay in all cases: DTP human tumour cell line panel, 48 h
[1] = test system: NCI-H460 lung
[2] = test system: CAKI-1 renal
[3] = test system: NCI-H226 lung
[4] = test system: MDA-MB-231 breast
[5] = test system: HCC-2998 colon
[6] = test system: PC-3 prostate
[7] = test system: NCI/ADR-RES ovarian
[8] = test system: T-47D breast
[9] = test system: HT29 colon
[10] = test system: OVCAR-4 ovarian
[11] = test system: SK-MEL-28 melanoma
[12] = test system: 786-0 renal
[13] = test system: MDA-MB-435
[14] = test system: OVCAR-8 ovarian
[15] = test system: U251 CNS
[16] = test system: EKVX NSCLC
[17] = test system: SK-MEL-5 melanoma
[18] = test system: SK-OV-3 ovarian
[19] = test system: A498 renal
[20] = test system: CCRF-CEM leukemia
[21] = test system: NCI-H522 lung
[22] = test system: RPMI-8226 leukemia
[23] = test system: OVCAR-3 ovarian
[24] = test system: MCF7 breast
[25] = test system: HS 578T breast
[26] = test system: SF-539 CNS
[27] = test system: KM12 colon
[28] = test system: ACHN renal
[29] = test system: SN12C renal
[30] = test system: MOLT-4 leukemia
[31] = test system: DU-145 prostate
[32] = test system: HOP-92 NSCLC
[33] = test system: HCT-15 colon
[34] = test system: UACC-62 melanoma
[35] = test system: SF-268 CNS
[36] = test system: BT-549 breast
[37] = test system: HOP-62 NSCLC
[38] = test system: HCT-116 colon
[39] = test system: K-562 leukemia
[40] = test system: RXF 393 renal
[41] = test system: UO-31 renal
[42] = test system: LOX IMVI melanoma
[43] = test system: NCI-H23 lung
[44] = test system: COLO 205 colon
[45] = test system: SNB-75 CNS
[46] = test system: TK-10 renal
[47] = test system: SK-MEL-2 melanoma
[48] = test system: SW-620 colon
[49] = test system: A549 NSCLC
[50] = test system: M14 melanoma
[51] = test system: OVCAR-5 ovarian
[52] = test system: IGROV1 ovarian
[53] = test system: SF-295 CNS

N#Cc1cc2c(cc1Cl)SC(=Nc1ccccc1)N(S(=O)(=O)c1ccc(Br)s1)S2(=O)=O
GI50 [1]: 23.1 µM | TGI [1]: 53 µM | GI50 [2]: 17.5 µM | TGI [2]: 33.8 µM | GI50 [3]: 28.8 µM | TGI [3]: 55.8 µM | GI50 [4]: 22.8 µM | TGI [4]: 42.1 µM | GI50 [5]: 14.7 µM | TGI [5]: 30.8 µM | GI50 [6]: 17.8 µM | TGI [6]: 37.3 µM | GI50 [7]: 19.8 µM | TGI [7]: 43.8 µM | GI50 [8]: 24.3 µM | TGI [8]: 75 µM | GI50 [9]: 32.3 µM | TGI [9]: > 100 µM | GI50 [10]: 20.9 µM | TGI [10]: 44 µM | GI50 [11]: 19.5 µM | TGI [11]: 44.1 µM | GI50 [12]: 16.7 µM | TGI [12]: 32.4 µM | GI50 [13]: 16.1 µM | TGI [13]: 33.9 µM | GI50 [14]: 18.9 µM | TGI [14]: 47.9 µM | GI50 [15]: 19.4 µM | TGI [15]: 42.5 µM | GI50 [16]: 19.5 µM | TGI [16]: 35.1 µM | GI50 [17]: 16 µM | TGI [17]: 30.3 µM | GI50 [18]: 39.6 µM | TGI [18]: > 100 µM | GI50 [19]: 21.9 µM | TGI [19]: 38 µM | GI50 [20]: 21.8 µM | TGI [20]: 45 µM | GI50 [21]: 15.5 µM | TGI [21]: 39.1 µM | GI50 [22]: 23.6 µM | TGI [22]: 67.6 µM | GI50 [23]: 15.9 µM | TGI [23]: 32 µM | GI50 [24]: 13.6 µM | TGI [24]: 39.5 µM | GI50 [25]: 24 µM | TGI [25]: 53.9 µM | GI50 [26]: 21.6 µM | TGI [26]: 39 µM | GI50 [27]: 18.7 µM | TGI [27]: 35.7 µM | GI50 [28]: 19.7 µM | TGI [28]: 37.3 µM | GI50 [29]: 24 µM | TGI [29]: 49.6 µM | GI50 [30]: 15.9 µM | TGI [30]: 46.2 µM | GI50 [31]: 20.6 µM | TGI [31]: 43.4 µM | GI50 [32]: 17.6 µM | TGI [32]: 39.7 µM | GI50 [33]: 17.9 µM | TGI [33]: 38.8 µM | GI50 [34]: 20.8 µM | TGI [34]: 36.3 µM | GI50 [35]: 20.6 µM | TGI [35]: 47.2 µM | GI50 [36]: 17.7 µM | TGI [36]: 32.2 µM | GI50 [37]: 19.1 µM | TGI [37]: 35.9 µM | GI50 [38]: 15.9 µM | TGI [38]: 33.7 µM | GI50 [39]: 14.5 µM | TGI [39]: 43.8 µM | GI50 [40]: 15.1 µM | TGI [40]: 45.1 µM | GI50 [41]: 15.1 µM | TGI [41]: 36.4 µM | GI50 [42]: 18.8 µM | TGI [42]: 43.6 µM | GI50 [43]: 19.3 µM | TGI [43]: 38 µM | GI50 [44]: 49.1 µM | TGI [44]: > 100 µM | GI50 [45]: 24 µM | TGI [45]: 51.7 µM | GI50 [46]: 19.7 µM | TGI [46]: 35.6 µM | GI50 [47]: 15 µM | TGI [47]: 37.8 µM | GI50 [48]: 18.9 µM | TGI [48]: 40 µM | GI50 [49]: 24.7 µM | TGI [49]: 66.6 µM | GI50 [50]: 14.8 µM | TGI [50]: 30.6 µM | GI50 [51]: 19.7 µM | TGI [51]: 39.2 µM | GI50 [52]: 12.8 µM | TGI [52]: 31.1 µM | GI50 [53]: 30.4 µM | TGI [53]: 89.5 µM
